Assay results reported in patent US5134150A, “Inhibition of the 5-lipoxygenase pathway” (priority 1989, dated 1992).

How the values were obtained:
[1] = test system: Arachidonic Acid-Induced Rat Paw Edema; assay: Arachidonic acid-induced rat paw swelling; format: in vivo, rat (male Lewis)
Description: (§1) In the following Examples where mice were used, they were male Balb/c mice (20-28 g), and where rats were used, they were male Lewis rats (180-210 g). All mice and rats were obtained from Charles River Breeding Laboratories, Kingston, N.Y. Within a single experiment, mice and rats were sex and age matched.
(§2) Auranofin, phenidone, indomethacin, naproxen, and ibuprofen were each used as the free base. The compounds of Formula (I) were used either as the free base or in the appropriate salt form. Levamisole was used as the hydrochloride salt. The compounds were homogenized in 0.5% tragacanth. Compounds were administered by gavage at the indicated dose in a final volume of 10 ml/kg. Nordihydroguaiaretic acid (NDGA) was solubilized in dimethylacetamide and diluted with olive oil for subcutaneous administration.
After determining pretreatment paw volumes by plethysmography by the method of Webb and Griswold, J. Pharmacol. Methods, 12, 149-153 (1984), rats were given test compound or vehicle one hour prior to the subplantar injection of 0.1 ml of 1 mg/ml arachidonic acid. Paw volumes were then remeasured and compared to pretreatment values and the increase in paw volume was expressed as mean values ± S.D.

[2] = test system: Infiltration of Polymorphonuclear Leukocytes into Sites of Carrageenan-Induced Inflammation; assay: Mouse carrageenan peritonitis (PMN infiltration); format: in vivo, mouse (male Balb/c); conditions: carrageenan peritonitis, mice
Description: as §1
as §2, with “The” for “Auranofin, phenidone, indomethacin, naproxen, and ibuprofen were each used as the free base. The”
Mice were pretreated with either the test compound or vehicle one hour before the intraperitoneal injection of a 1.0% carrageenan suspension in saline (0.2 ml/mouse). Mice were sacrificed by cervical dislocation two hours after injection, and 3.0 ml of phosphate buffered saline, without Ca^++ or Mg^++, was injected into the peritoneum. Following massage, a 2.0 ml aliquot of the lavage fluid was removed, and the total cell count determined on a Coulter counter and differential cell count determined by microscopic examination of Giesma-stained slides.

[3] = test system: Arachidonic Acid-Induced Cellular Infiltration into the Rat Air Pouch; assay: Arachidonic acid-induced air pouch inflammation; format: in vivo, rat (male Lewis)
Description: as §1
as §2, with “The” for “Auranofin, phenidone, indomethacin, naproxen, and ibuprofen were each used as the free base. The”
(§3) Rats were shaved on the dorsal flank, and then injected subcutaneously one day later with 20 ml of air to form a defined pouch, by the method of Sedgwick et al., J. Pathology, 141, 483-495 (1983). The air pouch was reinflated as necessary over the next 6 days. To assay anti-inflammatory activity, animals were treated orally with test compound or vehicle (10 ml/kg) one hour before injection of 2.0 ml of a 2.0% carrageenan suspension containing […] penicillin and 100 µg/ml streptomycin into the air pouch. In other experiments, 5 ml of 0.1% arachidonic acid in 0.2M bicarbonate buffer was injected two hours after drug treatment. Animals were sacrificed using CO2 three hours after instillation of irritant. The exudate was then aspirated from the pouch and neutrophil count and differential cell count were measured.

[4] = test system: LTB4 synthesis by peritoneal exudate cells; assay: Ex vivo production of LTB4 from peritoneal exudate cells of drug-treated mice; format: in vivo, mouse; conditions: for inhibition at 200 mg/kg: Mus musculus, po, 200 mg/kg p.o.
Description: In the following Examples where mice were used, they were male Balb/c mice (20-28 g), and where rats were used, they were male Lewis rats (180-210 g). All mice and rats were obtained from Charles River Breeding Laboratories, Kingston, N.Y. Within a single experiment, mice and rats were sex and age matched. Auranofin, phenidone, indomethacin, naproxen, and ibuprofen were each used as the free base. The compounds of Formula (I) were used either as the free base or in the appropriate salt form. Levamisole was used as the hydrochloride salt. […] Nordihydroguaiaretic acid (NDGA) was solubilized in dimethylacetamide and diluted with olive oil for subcutaneous administration. Carrageenan-induced peritoneal exudate cells from normal or drug-treated mice were washed and suspended in 2.2 ml of phosphate buffered saline. […] The cell preparation was centrifuged at 1500 rpm for 10 min and the supernatant was extracted using a C-18 silica column. […] A tetrahydrofuran, methanol, water, acetic acid (25:30:45: 0.1) solvent system, adjusted to pH 5.5 with ammonium hydroxide, was used at a flow rate of 0.7 ml/min. Cell derived LTB4 was quantified utilizing standard curves constructed with known amounts of synthetic LTB4.

Cyclooxygenase = target: T1, Cyclooxygenase (Rattus norvegicus, UniProt Q63921); assay: Cyclooxygenase activity (PGD2) in RBL-1 cell extracts, 10,000 x g supernatant; format: biochemical; conditions: Table 8
T1 construct: The activities of these enzymes in extracts of RBL-1 cells were assayed; host or cells: RBL-1
T1 sequence (Q63921 27-602): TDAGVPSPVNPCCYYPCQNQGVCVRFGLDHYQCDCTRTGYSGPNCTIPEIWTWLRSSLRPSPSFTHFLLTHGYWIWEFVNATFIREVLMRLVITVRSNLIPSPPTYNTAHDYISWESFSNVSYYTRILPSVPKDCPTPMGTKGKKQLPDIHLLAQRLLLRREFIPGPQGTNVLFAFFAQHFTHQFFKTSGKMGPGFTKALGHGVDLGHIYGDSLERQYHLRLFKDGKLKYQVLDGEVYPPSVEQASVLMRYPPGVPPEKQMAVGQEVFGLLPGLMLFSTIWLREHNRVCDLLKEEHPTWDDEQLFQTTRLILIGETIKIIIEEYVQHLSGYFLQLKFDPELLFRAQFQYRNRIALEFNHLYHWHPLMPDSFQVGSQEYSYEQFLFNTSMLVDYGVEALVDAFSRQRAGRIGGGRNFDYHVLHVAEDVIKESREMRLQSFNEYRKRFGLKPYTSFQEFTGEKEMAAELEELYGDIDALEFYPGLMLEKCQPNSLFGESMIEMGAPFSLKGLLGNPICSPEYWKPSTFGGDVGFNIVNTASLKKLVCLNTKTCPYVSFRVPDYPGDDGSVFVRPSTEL
Description: For in vitro experiments, compounds were dissolved at appropriate concentrations in ethanol or DMSO (dimethylsulfoxide) (final concentration≤1.0%) and then diluted to final concentrations using the buffers indicated in the text.
RBL-1 cells were obtained from the American Type Culture Collection (#CRL 1378) and were grown at 37° C. (5% CO2 in air) in spinner culture in MEM supplemented with 10% heat inactivated fetal calf serum. Harvested cells were washed with 50 mM sodium phosphate buffer, pH 7.0, containing 1 mM EDTA and 0.1% gelatin, resuspended in fresh buffer (5×10^7 cells/ml) and disrupted by nitrogen cavitation using the Parr bomb at 750 psi for 10 min. The broken cell extract was then centrifuged at 10,000× g for 20 minutes (min) and the supernatant centrifuged at 100,000 xIg for 60 min. Aliquots (0.25 mls) of the supernatant were preincubated with or without drugs for 10 min, after which 10 μl CaCl2 (50 mM) was added and the reaction was initiated with 2.5 μl of 2.5 mM arachidonic acid-1-^14 C (final concentration was 25 μM; specific activity 20,000 dpm/nmole). After incubation for 3 min at 37° C., the reaction was terminated by addition of 2 volumes (0.5 ml) ice cold acetone and the sample was allowed to deproteinize on ice for 10 min prior to centrifugation at 1,000× g for 10 min. […] Arachidonic acid, 5-HETE, LTB4 and PGD2 were quantified with a Berthold LB 2832 autoscanner.

[5] = test system: Carrageenan-Induced Cellular Infiltration into the Rat Air Pouch; assay: Carrageenan-induced air pouch inflammation; format: in vivo, rat (male Lewis)
Description: as §1
as §2, with “The” for “Auranofin, phenidone, indomethacin, naproxen, and ibuprofen were each used as the free base. The”
as §3

Q: For `O=C1CCN(c2ccccc2)N1` [Phenidone], which “Change in Paw Volume” value ([1]; 100 mg/kg, 2 hours post arachidonic acid) is on record?
A: 0.13 ± 0.05 mL

Q: What about the “Rat paw inflammatory response, result in words” value ([1]; rat, in vivo) of the same compound?
A: inhibited significantly

Q: And the “PMN infiltration, result in words” value [2]?
A: effective

Q: What about the “Cellular Infiltrate MN” value ([3]; 100 mg/kg) of the same compound?
A: 2.2 ± 1.5 Total × 10^-6

Q: And the “Cellular Infiltrate PMN” value ([3]; 100 mg/kg)?
A: 1.3 ± 0.8 Total × 10^-6

Q: And the “Exudate Volume” value ([3]; 100 mg/kg)?
A: 2.8 ± 0.4 mL

Q: And the “Cell infiltration into arachidonic acid air pouch, result in words” value ([3]; rat, in vivo)?
A: significantly reduced PMN and mononuclear cell infiltration

Q: And the inhibition at 200 mg/kg ([4]; Experiment 2)?
A: 21%

Q: What about the inhibition at 200 mg/kg ([4]; Experiment 3) of the same compound?
A: 33%

Q: What about the “LTB4 production ex vivo, result in words” value ([4]; mouse, in vivo) of the same compound?
A: weaker but inhibition of LTB4 synthesis

Q: What about the “IC50 Cyclooxygenase” value (Cyclooxygenase) of the same compound?
A: Inactive @ 100

Q: What about the “Cellular Infiltrate MN” value ([5]; 100 mg/kg) of the same compound?
A: 3.5 ± 1.4 Total × 10^-6

Q: What about the “Cellular Infiltrate PMN” value ([5]; 100 mg/kg) of the same compound?
A: 1.7 ± 0.6 Total × 10^-6

Q: And the “Exudate Volume” value ([5]; 100 mg/kg)?
A: 1.5 ± 0.8 mL

Q: What about the “Cell infiltration into carrageenan air pouch, result in words” value ([5]; rat, in vivo) of the same compound?
A: reduction in the PMN count and the PMN:mononuclear cell ratio
